The supplement of paper PMC5908809

Experiments:
[1] = test system: normal NK cells expanded with K562-aAPC; assay: percent inhibition of viability; higher = more inhibition; conditions: 72 h, IL-2 2.5 ng/mL
Protocol: (§1)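 Drug sensitivity and resistance testing on K562-aAPC-expanded normal NK cells: 5 concentrations (10-fold steps over a 10,000-fold range), 72 h at 37 °C, viability by CellTiter-Glo normalised to DMSO and benzethonium chloride controls; DSS from the fitted curve.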

[2] = test system: DERL-7 (IL-2 2.5 ng/mL); assay: as above; conditions: 72 h
[3] = test system: IMC-1 (IL-2 20 ng/mL); assay: as above; conditions: 72 h
[4] = test system: KAI3 (IL-2 2.5 ng/mL); assay: as above; conditions: 72 h
[5] = test system: KHYG-1 (IL-2 2.5 ng/mL); assay: as above; conditions: 72 h
[6] = test system: NK-92 (IL-2 2.5 ng/mL); assay: as above; conditions: 72 h
[7] = test system: NK-YS (IL-2 2.5 ng/mL); assay: as above; conditions: 72 h
[8] = test system: NKL (IL-2 2.5 ng/mL); assay: as above; conditions: 72 h
[9] = test system: SNK-6 (IL-2 2.5 ng/mL); assay: as above; conditions: 72 h
[10] = test system: YT (IL-2 2.5 ng/mL); assay: as above; conditions: 72 h
[11] = test system: normal primary NK cells, pool 1 (3 donors) (IL-2 2.5 ng/mL); assay: as above; conditions: 72 h
[12] = test system: normal primary NK cells, pool 1 (3 donors), resting (IL-2 0 ng/mL); assay: as above; conditions: 72 h
[13] = test system: normal primary NK cells, pool 2 (3 donors) (IL-2 2.5 ng/mL); assay: as above; conditions: 72 h
[14] = test system: normal primary NK cells, pool 3 (3 donors) (IL-2 2.5 ng/mL); assay: as above; conditions: 72 h
[15] = test system: normal NK cells expanded with K562-aAPC; assay: drug sensitivity score (DSS) (DSS units); higher = more sensitive; extreme values may be limits of the assay; conditions: 72 h; IL-2 2.5 ng/mL
Protocol: as §1

[16] = test system: DERL-7 (IL-2 2.5 ng/mL); assay: as above; conditions: 72 h
[17] = test system: IMC-1 (IL-2 20 ng/mL); assay: as above; conditions: 72 h
[18] = test system: KAI3 (IL-2 2.5 ng/mL); assay: as above; conditions: 72 h
[19] = test system: KHYG-1 (IL-2 2.5 ng/mL); assay: as above; conditions: 72 h
[20] = test system: NK-92 (IL-2 2.5 ng/mL); assay: as above; conditions: 72 h
[21] = test system: NK-YS (IL-2 2.5 ng/mL); assay: as above; conditions: 72 h
[22] = test system: NKL (IL-2 2.5 ng/mL); assay: as above; conditions: 72 h
[23] = test system: SNK-6 (IL-2 2.5 ng/mL); assay: as above; conditions: 72 h
[24] = test system: YT (IL-2 2.5 ng/mL); assay: as above; conditions: 72 h
[25] = test system: normal primary NK cells, pool 1 (3 donors) (IL-2 2.5 ng/mL); assay: as above; conditions: 72 h
[26] = test system: normal primary NK cells, pool 1 (3 donors), resting (IL-2 0 ng/mL); assay: as above; conditions: 72 h
[27] = test system: normal primary NK cells, pool 2 (3 donors) (IL-2 2.5 ng/mL); assay: as above; conditions: 72 h
[28] = test system: normal primary NK cells, pool 3 (3 donors) (IL-2 2.5 ng/mL); assay: as above; conditions: 72 h

CCn1cc(-c2ccnc3[nH]c(-c4cccc(CN(C)C)c4)cc23)c(-c2ccc(NC(=O)N(C)C)cc2)n1 (max concentration tested 1000 nM)
percent inhibition of viability [%]
Conditions | 0.1 nM | 1 nM | 10 nM | 100 nM | 1000 nM
[1] | -5.72 | -6.24 | -0.83 | 49.9 | 32
[2] | -1.42 | -13.7 | 13.4 | 68.1 | 56.9
[3] | -3.05 | 2.14 | 9.34 | 18.7 | 69
[4] | 0.71 | -0.96 | 15.3 | 16.4 | 34.5
[5] | -0.5 | 3.29 | 9.71 | 39.2 | 54
[6] | -10.8 | -15.2 | -2.48 | 28.9 | 35.5
[7] | -3.92 | -3.4 | 26.2 | 69.9 | 66.9
[8] | -15 | -6.31 | 2.14 | 11.6 | 43.2
[9] | 20.9 | 18.6 | 35 | 71.1 | 65.4
[10] | 2.03 | 4.54 | 11.2 | 19.1 | 39.5
[11] | 6.54 | -2.75 | 2.78 | -10.4 | -5.89
[12] | 10.8 | -0.01 | -0.34 | -11.5 | 8.25
[13] | -0.19 | 2.58 | 11.4 | 2.17 | 5.89
[14] | -9.36 | -0.39 | 7.48 | -0.31 | 7.08

Conditions | drug sensitivity score
[15] | 8.97
[16] | 14.7
[17] | 6.3
[18] | 4.01
[19] | 8.32
[20] | 5.05
[21] | 16.5
[22] | 3.99
[23] | 18.6
[24] | 4.47
[25] | 0
[26] | 0
[27] | 0
[28] | 0

Cn1cc(-c2ccc3nnc(C(F)(F)c4ccc5ncccc5c4)n3n2)cn1 (max concentration tested 10000 nM)
percent inhibition of viability [%]
Conditions | 1 nM | 10 nM | 100 nM | 1000 nM | 10000 nM
[1] | 2.09 | -3.72 | 2.32 | 3.57 | 16.4
[2] | -6.47 | 1.35 | -5.46 | -8.39 | -0.31
[3] | 2.83 | 3.66 | 7.99 | 14.2 | 18.1
[4] | 3.43 | 0.25 | 2.09 | 1.51 | 5.42
[5] | 0.7 | 1.87 | -1.15 | 9.39 | 7.11
[6] | 3.19 | 2.36 | 1.58 | 20 | 16.7
[7] | -0.7 | -2.18 | -0.71 | 3.19 | 6.06
[8] | 15.6 | 0.97 | 2.69 | 5.68 | 32.8
[9] | -5.06 | -3.02 | -0.1 | 27.9 | 44
[10] | 2.08 | 2.01 | -0.66 | 8.07 | 15.4
[11] | -10.8 | -1.09 | -9.66 | -1.21 | 4
[12] | -30.2 | -15.2 | -20.6 | -28.2 | -14.9
[13] | -8.18 | -11 | -4.17 | -3.65 | 7.05
[14] | -11.6 | -17.9 | -6.24 | 0.44 | 0.55

Conditions | drug sensitivity score
[15] | 0.71
[16] | 0
[17] | 1.63
[18] | 0
[19] | 0
[20] | 2.9
[21] | 0
[22] | 2.43
[23] | 5.6
[24] | 0.87
[25] | 0
[26] | 0
[27] | 0
[28] | 0

CCN1CCN(Cc2ccc(Nc3ncc(F)c(-c4cc(F)c5nc(C)n(C(C)C)c5c4)n3)nc2)CC1 [Abemaciclib] (max concentration tested 2500 nM)
percent inhibition of viability [%]
Conditions | 0.25 nM | 2.5 nM | 25 nM | 250 nM | 2500 nM
[1] | 2.02 | -3.3 | 4.81 | 17.7 | 41.3
[2] | -4.64 | -2.09 | 8.58 | 51.3 | 73.9
[3] | 1.3 | -5.47 | -5.79 | -18.8 | 97.5
[4] | -4.55 | -3.34 | -6.9 | -4.76 | 11.8
[5] | -1.33 | -1.51 | -0.04 | 42.8 | 79.8
[6] | -9.23 | 0.87 | -2.31 | 7.25 | 42
[7] | -3.7 | -3.12 | 0.09 | 18 | 95
[8] | -11.9 | -8.91 | -19.3 | -11.8 | 38
[9] | 22.8 | 13.2 | 4.72 | 15.4 | 29.8
[10] | -0.11 | 3.29 | -1.68 | 5.51 | 7.94
[11] | -4.8 | -6.62 | -2.33 | 9.08 | 24.4
[12] | -12.7 | -5.25 | -10.3 | -47.3 | -83.7
[13] | -7.88 | -7.14 | 0.77 | 1.36 | 50.7
[14] | -10.9 | -4.53 | -8.73 | -3.71 | 11.1

Conditions | drug sensitivity score
[15] | 3.89
[16] | 10.8
[17] | 4.41
[18] | 0.01
[19] | 9.69
[20] | 3.33
[21] | 8.19
[22] | 1.33
[23] | 0.14
[24] | 0
[25] | 2.05
[26] | 0.89
[27] | 2.85
[28] | 0
